Assay results published in the NIST ThermoML archive (doi:10.1021/acs.jced.8b00713).

Details: Liquid; for viscosity: Vibrating wire viscometry; for mass density: Vibrating tube method

FC(F)(F)/C=C\C(F)(F)F [(Z)-1,1,1,4,4,4-hexafluorobut-2-ene]
Details	mass density [kg/m3]	viscosity [mPa·s]
313.16 K, 10000 kPa	–	0.3543
313.16 K, 50000 kPa	1451.06	–
313.16 K, 60000 kPa	1467.37	–
323.14 K, 5000 kPa	1317.21	–
323.14 K, 10000 kPa	1335.83	–
323.14 K, 20000 kPa	–	0.3632
323.15 K, 500 kPa	1297.83	–
323.15 K, 1000 kPa	1300.12	–
323.15 K, 5000 kPa	–	0.2981
323.15 K, 10000 kPa	–	0.322
323.15 K, 15000 kPa	1352.25	0.3425
323.15 K, 20000 kPa	1366.96	–
323.15 K, 25000 kPa	1380.35	0.3839
323.15 K, 30000 kPa	1392.69	0.4043
323.15 K, 40000 kPa	1414.6	–
323.15 K, 50000 kPa	1433.91	–
323.15 K, 80010 kPa	1480.77	–
323.15 K, 100010 kPa	1505.41	–
323.16 K, 500 kPa	–	0.2776
323.16 K, 1000 kPa	–	0.28
323.16 K, 2000 kPa	1304.59	0.2844
323.16 K, 40000 kPa	–	0.445
323.16 K, 60000 kPa	1451.12	–
333.14 K, 500 kPa	–	0.2497
333.15 K, 1000 kPa	1271.96	0.2521
333.15 K, 5000 kPa	1291.31	0.2705
333.15 K, 10000 kPa	–	0.2917
333.15 K, 15000 kPa	–	0.3126
333.15 K, 20000 kPa	1346	0.3321
333.15 K, 25000 kPa	1360.41	0.3512
333.15 K, 30000 kPa	1373.57	0.3741
333.15 K, 40000 kPa	1396.93	0.41
333.15 K, 50000 kPa	1417.34	–
333.15 K, 60000 kPa	1435.25	–
333.15 K, 80000 kPa	1466.47	–
333.15 K, 100000 kPa	1492.09	–
333.16 K, 500 kPa	1269.32	–
333.16 K, 2000 kPa	1277.07	0.2568
333.16 K, 10000 kPa	1312.03	–
333.16 K, 15000 kPa	1330.02	–
343.15 K, 1000 kPa	–	0.2262
343.15 K, 2000 kPa	1248.57	0.2308
343.15 K, 5000 kPa	–	0.2443
343.15 K, 10000 kPa	–	0.2663
343.15 K, 15000 kPa	1307.63	0.2864
343.15 K, 20000 kPa	–	0.3054
343.15 K, 25000 kPa	–	0.3246
343.15 K, 30000 kPa	–	0.3429
343.15 K, 40000 kPa	1379.44	0.3794
343.15 K, 50000 kPa	1400.93	–
343.15 K, 60000 kPa	1419.91	–
343.15 K, 80000 kPa	1452.33	–
343.15 K, 100000 kPa	1478.79	–
343.16 K, 500 kPa	1239.61	0.224
343.16 K, 1000 kPa	1242.66	–
343.16 K, 5000 kPa	1264.73	–
343.16 K, 10000 kPa	1287.86	–
343.16 K, 20000 kPa	1324.98	–
343.16 K, 25000 kPa	1340.52	–
343.16 K, 30000 kPa	1354.59	–
353.14 K, 2000 kPa	–	0.2104
353.15 K, 1000 kPa	1211.33	–
353.15 K, 2000 kPa	1218.18	–
353.15 K, 5000 kPa	–	0.221
353.15 K, 10000 kPa	–	0.2419
353.15 K, 15000 kPa	1284.42	0.2623
353.15 K, 20000 kPa	–	0.2801
353.15 K, 25000 kPa	1320.02	–
353.15 K, 30000 kPa	1335.13	0.3157
353.15 K, 40000 kPa	1361.5	0.3504
353.15 K, 50000 kPa	1384.21	–
353.15 K, 60000 kPa	1404.05	–
353.15 K, 80010 kPa	1438.01	–
353.15 K, 100000 kPa	1465.73	–
353.16 K, 1000 kPa	–	0.2057
353.16 K, 5000 kPa	1236.75	–
353.16 K, 10000 kPa	1262.64	–
353.16 K, 20000 kPa	1303.28	–
353.16 K, 25000 kPa	–	0.2983
363.15 K, 1000 kPa	1177.46	–
363.15 K, 10000 kPa	1236.32	–
363.15 K, 25000 kPa	1298.98	–
363.15 K, 30000 kPa	1315.14	–
363.15 K, 60000 kPa	1387.96	–
363.15 K, 79990 kPa	1423.19	–
363.16 K, 2000 kPa	1185.52	–
363.16 K, 5000 kPa	1207.05	–
363.16 K, 15000 kPa	1260.38	–
363.16 K, 20000 kPa	1280.92	–
363.16 K, 40000 kPa	1343.17	–
363.16 K, 50000 kPa	1367.09	–
363.16 K, 100000 kPa	1451.81	–
373.15 K, 1000 kPa	1140.74	–
373.15 K, 5000 kPa	1175.78	–
373.15 K, 10020 kPa	1209.06	–
373.15 K, 15000 kPa	1235.47	–
373.15 K, 25000 kPa	1277.24	–
373.15 K, 30000 kPa	1294.44	–
373.15 K, 50000 kPa	1349.23	–
373.15 K, 60000 kPa	1370.99	–
373.15 K, 80010 kPa	1407.73	–
373.15 K, 100010 kPa	1437.36	–
373.16 K, 2000 kPa	1150.47	–
373.16 K, 20020 kPa	1257.86	–
373.16 K, 40000 kPa	1324.14	–
